PubChem BioAssay AID252 (DTP/NCI, 2004)
“And” between values parts separate entries of the source, which are not always exact repeats. Identical values can stand only once. Toxic doses and inconclusive results are not listed.

System: BDF1 mice, intracerebral L1210 leukemia, survival T/C
Experiment: NCI In Vivo Anticancer Drug Screen. Data for tumor model L1210 Leukemia (intracerebral) in B6D2F1 (BDF1) mice
Settings: higher = longer survival
How it was run: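 Tumour was transplanted, animals received compound or vehicle, then survival in each group was measured and treated divided by control.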

S=c1nc[nH]c2nc[nH]c12
T/C (endpoint: mean survival time, dose: 5.0 mg/kg/injection, schedule: Q01DX009 (ip), vehicle: alkali diluted with saline): 122 % of control
T/C (endpoint: mean survival time, dose: 6.0 mg/kg/injection, schedule: Q01DX015 (ip), vehicle: alkali diluted with saline): 114 % of control
T/C (endpoint: mean survival time, dose: 9.0 mg/kg/injection, schedule: Q01DX015 (ip), vehicle: alkali diluted with saline): 120 % of control
T/C (endpoint: mean survival time, dose: 14.0 mg/kg/injection, schedule: Q01DX015 (ip), vehicle: alkali diluted with saline): 120 % of control
T/C (endpoint: mean survival time, dose: 60.0 mg/kg/injection, schedule: Q01DX001 (ip), vehicle: alkali diluted with saline): 111 % of control
T/C (endpoint: mean survival time, dose: 80.0 mg/kg/injection, schedule: Q01DX009 (ip), vehicle: alkali diluted with saline): 181 % of control
T/C (endpoint: mean survival time, dose: 90.0 mg/kg/injection, schedule: Q01DX001 (ip), vehicle: alkali diluted with saline): 117 % of control
T/C (endpoint: mean survival time, dose: 135.0 mg/kg/injection, schedule: Q01DX001 (ip), vehicle: alkali diluted with saline): 115 % of control
T/C (endpoint: median survival time, dose: 100.0 mg/kg/injection, schedule: Q01DX001 (oral), vehicle: saline with Tween-80): 115 % of control
T/C (endpoint: median survival time, dose: 200.0 mg/kg/injection, schedule: Q01DX001 (oral), vehicle: saline with Tween-80): 113 % of control
T/C (endpoint: median survival time, dose: 400.0 mg/kg/injection, schedule: Q01DX001 (oral), vehicle: saline with Tween-80): 118 % of control

O=c1[nH]c(=O)n([C@H]2CCCO2)cc1F
T/C (endpoint: median survival time, dose: 23.0 mg/kg/injection, schedule: Q01DX009 (ip), vehicle: water): 95 % of control
T/C (endpoint: median survival time, dose: 39.0 mg/kg/injection, schedule: Q01DX009 (ip), vehicle: water): 107 % of control
T/C (endpoint: median survival time, dose: 65.0 mg/kg/injection, schedule: Q01DX009 (ip), vehicle: water): 101 % of control
T/C (endpoint: median survival time, dose: 65.0 mg/kg/injection, schedule: Q04DX003 (ip), vehicle: water): 97 % of control
T/C (endpoint: median survival time, dose: 108.0 mg/kg/injection, schedule: Q04DX003 (ip), vehicle: water): 99 % of control
T/C (endpoint: median survival time, dose: 180.0 mg/kg/injection, schedule: Q01DX009 (ip), vehicle: water): 97 % of control
T/C (endpoint: median survival time, dose: 180.0 mg/kg/injection, schedule: Q04DX003 (ip), vehicle: water): 111 % of control

O=NN(CCCl)C(=O)Nc1c[nH]c(=O)[nH]c1=O
T/C (endpoint: mean survival time, dose: 4.4 mg/kg/injection, schedule: Q01DX001 (ip), vehicle: carboxymethylcellulose (CMC)): 103 % of control
T/C (endpoint: mean survival time, dose: 6.7 mg/kg/injection, schedule: Q01DX001 (ip), vehicle: carboxymethylcellulose (CMC)): 101 % of control
T/C (endpoint: mean survival time, dose: 10.0 mg/kg/injection, schedule: Q01DX001 (ip), vehicle: carboxymethylcellulose (CMC)): 102 % of control
T/C (endpoint: mean survival time, dose: 15.0 mg/kg/injection, schedule: Q01DX001 (ip), vehicle: carboxymethylcellulose (CMC)): 103 % of control
T/C (endpoint: mean survival time, dose: 20.0 mg/kg/injection, schedule: Q01DX001 (ip), vehicle: carboxymethylcellulose (CMC)): 98 % of control
T/C (endpoint: mean survival time, dose: 30.0 mg/kg/injection, schedule: Q01DX001 (ip), vehicle: carboxymethylcellulose (CMC)): 107 % of control
T/C (endpoint: mean survival time, dose: 40.0 mg/kg/injection, schedule: Q01DX001 (ip), vehicle: carboxymethylcellulose (CMC)): 100 % of control
T/C (endpoint: mean survival time, dose: 60.0 mg/kg/injection, schedule: Q01DX001 (ip), vehicle: carboxymethylcellulose (CMC)): 94 % of control

COc1ccc2c(Nc3ccc(NS(C)(=O)=O)cc3)c3ccccc3nc2c1
T/C (endpoint: mean survival time, dose: 6.25 mg/kg/injection, schedule: Q01DX009 (ip), vehicle: saline): 106 % of control
T/C (endpoint: mean survival time, dose: 6.25 mg/kg/injection, schedule: Q01DX009 (sc), vehicle: saline): 104 % of control
T/C (endpoint: mean survival time, dose: 12.5 mg/kg/injection, schedule: Q01DX009 (ip), vehicle: saline): 102 % of control
T/C (endpoint: mean survival time, dose: 12.5 mg/kg/injection, schedule: Q01DX009 (sc), vehicle: saline): 100 % of control
T/C (endpoint: mean survival time, dose: 25.0 mg/kg/injection, schedule: Q01DX009 (sc), vehicle: saline): 106 % of control
T/C (endpoint: mean survival time, dose: 50.0 mg/kg/injection, schedule: Q01DX009 (sc), vehicle: saline): 88 % of control

OCCOCCN1CCN(CCCN2c3ccccc3Sc3ccc(C(F)(F)F)cc32)CC1
T/C (endpoint: mean survival time, dose: 18.7 mg/kg/injection, schedule: Q04DX003 (ip), vehicle: saline): 106 % of control
T/C (endpoint: mean survival time, dose: 37.5 mg/kg/injection, schedule: Q04DX003 (ip), vehicle: saline): 106 % of control
T/C (endpoint: mean survival time, dose: 75.0 mg/kg/injection, schedule: Q04DX003 (ip), vehicle: saline): 106 % of control

CC1(NC(=O)N(CCCl)N=O)CCCC1
T/C (endpoint: mean survival time, dose: 12.5 mg/kg/injection, schedule: Q01DX001 (ip), vehicle: carboxymethylcellulose (CMC)): 91 % of control
T/C (endpoint: mean survival time, dose: 25.0 mg/kg/injection, schedule: Q01DX001 (ip), vehicle: carboxymethylcellulose (CMC)): 102 % of control
T/C (endpoint: mean survival time, dose: 50.0 mg/kg/injection, schedule: Q01DX001 (ip), vehicle: carboxymethylcellulose (CMC)): 100 % of control
T/C (endpoint: mean survival time, dose: 100.0 mg/kg/injection, schedule: Q01DX001 (ip), vehicle: carboxymethylcellulose (CMC)): 100 % of control
T/C (endpoint: mean survival time, dose: 125.0 mg/kg/injection, schedule: Q01DX001 (ip), vehicle: carboxymethylcellulose (CMC)): 347 % of control
T/C (endpoint: mean survival time, dose: 187.0 mg/kg/injection, schedule: Q01DX001 (ip), vehicle: carboxymethylcellulose (CMC)): 285 % of control
T/C (endpoint: mean survival time, dose: 250.0 mg/kg/injection, schedule: Q01DX001 (ip), vehicle: carboxymethylcellulose (CMC)): 276 % of control

COc1cc(NS(C)(=O)=O)ccc1Nc1c2ccccc2nc2ccccc12
T/C (endpoint: mean survival time, dose: 0.5 mg/kg/injection, schedule: Q01DX009 (ip), vehicle: other): 98 % of control
T/C (endpoint: mean survival time, dose: 0.75 mg/kg/injection, schedule: Q01DX009 (ip), vehicle: saline): 100 % of control
T/C (endpoint: mean survival time, dose: 0.75 mg/kg/injection, schedule: Q01DX009 (sc), vehicle: saline): 101 % of control
T/C (endpoint: mean survival time, dose: 1.0 mg/kg/injection, schedule: Q01DX009 (ip), vehicle: other): 92 % of control
T/C (endpoint: mean survival time, dose: 1.25 mg/kg/injection, schedule: Q01DX009 (ip), vehicle: saline): 97 % of control
T/C (endpoint: mean survival time, dose: 1.25 mg/kg/injection, schedule: Q01DX009 (sc), vehicle: saline): 94 % of control
T/C (endpoint: mean survival time, dose: 1.5 mg/kg/injection, schedule: Q01DX009 (ip), vehicle: saline): 100 % of control
T/C (endpoint: mean survival time, dose: 1.5 mg/kg/injection, schedule: Q01DX009 (sc), vehicle: saline): 93 % of control
T/C (endpoint: mean survival time, dose: 1.8 mg/kg/injection, schedule: Q01DX009 (ip), vehicle: water): 92 % of control
T/C (endpoint: mean survival time, dose: 2.0 mg/kg/injection, schedule: Q01DX009 (ip), vehicle: other): 105 % of control
T/C (endpoint: mean survival time, dose: 2.5 mg/kg/injection, schedule: Q01DX009 (ip), vehicle: saline): 108 % of control and 97 % of control
T/C (endpoint: mean survival time, dose: 2.5 mg/kg/injection, schedule: Q01DX009 (sc), vehicle: saline): 98 % of control and 95 % of control
T/C (endpoint: mean survival time, dose: 3.0 mg/kg/injection, schedule: Q01DX009 (ip), vehicle: saline): 102 % of control
T/C (endpoint: mean survival time, dose: 3.0 mg/kg/injection, schedule: Q01DX009 (ip), vehicle: water): 88 % of control
T/C (endpoint: mean survival time, dose: 3.0 mg/kg/injection, schedule: Q01DX009 (sc), vehicle: saline): 92 % of control
T/C (endpoint: mean survival time, dose: 5.0 mg/kg/injection, schedule: Q01DX009 (ip), vehicle: saline): 121 % of control and 108 % of control
T/C (endpoint: mean survival time, dose: 5.0 mg/kg/injection, schedule: Q01DX009 (sc), vehicle: saline): 101 % of control and 93 % of control
T/C (endpoint: mean survival time, dose: 6.0 mg/kg/injection, schedule: Q01DX009 (ip), vehicle: saline): 104 % of control
T/C (endpoint: mean survival time, dose: 6.0 mg/kg/injection, schedule: Q01DX009 (sc), vehicle: saline): 96 % of control
T/C (endpoint: mean survival time, dose: 10.0 mg/kg/injection, schedule: Q01DX009 (ip), vehicle: saline): 111 % of control
T/C (endpoint: mean survival time, dose: 10.0 mg/kg/injection, schedule: Q01DX009 (sc), vehicle: saline): 100 % of control and 98 % of control
T/C (endpoint: mean survival time, dose: 20.0 mg/kg/injection, schedule: Q01DX009 (sc), vehicle: saline): 109 % of control

O=C(Nc1ccc(C2=NCCCN2)cc1)c1ccc(C(=O)Nc2ccc(C3=NCCCN3)cc2)cc1
T/C (endpoint: mean survival time, dose: 1.25 mg/kg/injection, schedule: Q01DX Z (ip), vehicle: carboxymethylcellulose (CMC)): 107 % of control
T/C (endpoint: mean survival time, dose: 2.5 mg/kg/injection, schedule: Q01DX Z (ip), vehicle: carboxymethylcellulose (CMC)): 107 % of control
T/C (endpoint: mean survival time, dose: 5.0 mg/kg/injection, schedule: Q01DX Z (ip), vehicle: carboxymethylcellulose (CMC)): 114 % of control
T/C (endpoint: mean survival time, dose: 31.0 mg/kg/injection, schedule: Q01DX Z (ip), vehicle: carboxymethylcellulose (CMC)): 104 % of control

O=C(NC1=C(N2CC2)C(=O)C(NC(=O)OCCO)=C(N2CC2)C1=O)OCCO
T/C (endpoint: median survival time, dose: 0.18 mg/kg/injection, schedule: Q01DX009 (ip), vehicle: saline): 100 % of control
T/C (endpoint: median survival time, dose: 0.39 mg/kg/injection, schedule: Q01DX009 (ip), vehicle: saline): 97 % of control
T/C (endpoint: median survival time, dose: 0.75 mg/kg/injection, schedule: Q01DX009 (ip), vehicle: saline): 96 % of control and 97 % of control
T/C (endpoint: median survival time, dose: 1.5 mg/kg/injection, schedule: Q01DX009 (ip), vehicle: saline): 91 % of control and 100 % of control
T/C (endpoint: median survival time, dose: 3.0 mg/kg/injection, schedule: Q01DX009 (ip), vehicle: saline): 108 % of control and 101 % of control
T/C (endpoint: median survival time, dose: 6.0 mg/kg/injection, schedule: Q01DX009 (ip), vehicle: saline): 122 % of control and 98 % of control
